The target of assay [1] is T1, STAT6 (Homo sapiens, UniProt P42226).
T1 construct: These cells express endogenous STAT6; host or cells: HeLa LgBiT clone 4.14
T1 sequence (P42226 1-847): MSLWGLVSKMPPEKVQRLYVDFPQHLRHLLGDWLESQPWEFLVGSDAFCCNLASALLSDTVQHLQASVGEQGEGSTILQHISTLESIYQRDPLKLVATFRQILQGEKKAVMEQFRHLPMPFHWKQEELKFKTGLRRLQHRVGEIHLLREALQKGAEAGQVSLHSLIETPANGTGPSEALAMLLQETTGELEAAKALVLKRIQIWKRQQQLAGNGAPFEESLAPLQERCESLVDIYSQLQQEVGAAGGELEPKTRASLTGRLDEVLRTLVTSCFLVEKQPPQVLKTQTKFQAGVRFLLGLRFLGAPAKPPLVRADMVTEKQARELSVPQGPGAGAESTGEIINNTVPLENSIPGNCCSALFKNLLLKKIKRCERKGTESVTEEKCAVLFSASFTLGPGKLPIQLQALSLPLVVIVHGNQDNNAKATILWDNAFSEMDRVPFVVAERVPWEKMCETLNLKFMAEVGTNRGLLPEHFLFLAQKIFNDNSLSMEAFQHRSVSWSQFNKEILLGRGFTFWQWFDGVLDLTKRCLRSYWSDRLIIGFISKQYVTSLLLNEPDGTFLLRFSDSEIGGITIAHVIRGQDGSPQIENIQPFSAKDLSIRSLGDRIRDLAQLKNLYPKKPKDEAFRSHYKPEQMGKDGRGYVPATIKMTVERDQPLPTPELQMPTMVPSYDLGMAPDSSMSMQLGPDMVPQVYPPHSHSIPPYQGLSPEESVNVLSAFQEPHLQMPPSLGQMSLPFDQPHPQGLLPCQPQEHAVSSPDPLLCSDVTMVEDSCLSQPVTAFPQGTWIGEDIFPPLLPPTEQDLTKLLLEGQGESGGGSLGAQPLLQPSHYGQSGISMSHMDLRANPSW
The experiment in a line: Stat6 Degrader Assay (HiBiT based, HeLa LgBiT clone 4.14). Format: cell-based. The settings on record: HeLa LgBiT clone 4.14 HiBiT-STAT6, 4-24 h incubation; values given for compounds with >80% Emax; geometric mean; read-out: STAT6 degradation DC50. An outline of the steps:
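HeLa LgBiT clone 4.14 cells with CRISPR HiBiT-tagged endogenous STAT6, 5000 cells/well, compound dosed then incubated 4-24 h at 37° C, 5% CO2. Nano-Glo substrate added, 0.5 h, luminescence read as non-degraded STAT6. Terfenadine 50 μM (cell kill) defines 100% degradation.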

Assay [2] has as its system Eotaxin-3 release in human whole blood stimulated with IL-4. The experiment in a line: Human Whole Blood Eotaxin-3 Assay (IL-4 stimulated eotaxin-3 release). Format: cell-based. The conditions noted are these: IL-4 stimulation, 48 h, values given for compounds with >80% Emax, geometric mean. The essentials: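 Lithium-heparin human whole blood preincubated 2 h at 37° C with 4-fold serially diluted compounds (0.5% DMSO), then stimulated with recombinant human IL-4 ([…]) for 48 h. Eotaxin-3 (CCL26) in supernatant quantified by MSD immunoassay.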

As usually defined, the DC50 is the concentration giving 50% degradation. A word on the EC50: it is the concentration giving half of the maximal effect.

As to `CNc1ccn(-c2ccnc3c2cc([C@H](C)N2CC=C(c4c(C)cc(C(=O)N5CCC(CN6CCN(Cc7cc8c(cc7F)n([C@@H]7CCC(=O)NC7=O)c(=O)n8C)CC6)CC5)cc4F)CC2)n3C)c(=O)c1` (single isomer, unassigned) [Example 3u12], the DC50 in assay [1] was 0.6 nM. This molecule returned an EC50 in assay [2] of 0.5 nM.
For `CNc1cc(=O)n(-c2ccnc3c2cc([C@H](C)N2CC=C(c4c(C)cc(C(=O)N5CCC(CN6CCN(Cc7ccc8c(c7)n(C)c(=O)n8[C@H]7CCC(=O)NC7=O)CC6)CC5)cc4F)CC2)n3C)cc1F` (single isomer, unassigned) [Example 3u14], the DC50 in assay [1] stood at 0.6 nM. In addition, the EC50 in assay [2] was found to be 1.2 nM.
For `CNc1cc(=O)n(-c2ccnc3c2cc([C@H](C)N2CC=C(c4c(C)cc(C(=O)N5CCC(CN6CCN(Cc7ccc8c(c7)n(C)c(=O)n8[C@@H]7CCC(=O)NC7=O)CC6)CC5)cc4F)CC2)n3C)cc1F` (single isomer, unassigned) [Example 3u15], in that order: 0.8 nM and 2.2 nM.
For the molecule `CNc1ccn(-c2ccnc3c2cc(CN2CCC(c4c(F)cc(C(=O)N5CCC(CN6CCN(Cc7ccc8c(c7)C(C)(C)C(=O)N8[C@H]7CCC(=O)NC7=O)CC6)CC5)cc4F)CC2)n3C)c(=O)c1` (single isomer, unassigned) [Example 3u17], in assay [1], the DC50 came to 6 nM. Moreover, in assay [2], the midpoint of the response, the EC50, lay at 6.3 nM.
Regarding `CNc1ccn(-c2ccnc3c2cc(CN2CCC(c4c(F)cc(C(=O)N5CCC(CN6CCN(Cc7ccc8c(c7)C(C)(C)C(=O)N8[C@@H]7CCC(=O)NC7=O)CC6)CC5)cc4F)CC2)n3C)c(=O)c1` (single isomer, unassigned) [Example 3u18], the half-maximal degradation concentration (DC50) in assay [1] came out at 8.4 nM. Besides, the EC50 in assay [2] is 18.6 nM.
Consider `Cc1cc(C(=O)N2CCC(CN3CCN(Cc4ccc5c(c4)n(C)c(=O)n5[C@@H]4CCC(=O)NC4=O)C[C@@H]3C)CC2)cc(F)c1C1=CCN(Cc2cc3c(-n4ccc5c(c4=O)CCN5)ccnc3n2C)CC1` (single isomer, unassigned) [Example 3u25], for which the half-maximal degradation concentration (DC50) in assay [1] came out at 1.3 nM. This molecule also gave an EC50 in assay [2] of 1 nM.
With `CNc1cc(=O)n(-c2ccnc3c2cc(CN2CCC(c4c(F)cc(C(=O)N5CCC(CN6CCN(Cc7ccc8c(c7)n(C)c(=O)n8[C@H]7CCC(=O)NC7=O)CC6)CC5)cc4F)CC2)n3C)cc1F` (single isomer, unassigned) [Example 3u27], in assay [1], the DC50 amounted to 2 nM. For the same molecule, the EC50 in assay [2] is 5.7 nM.
Regarding `CNc1cc(=O)n(-c2ccnc3c2cc(CN2CCC(c4c(F)cc(C(=O)N5CCC(CN6CCN(Cc7ccc8c(c7)n(C)c(=O)n8[C@@H]7CCC(=O)NC7=O)CC6)CC5)cc4F)CC2)n3C)cc1F` (single isomer, unassigned) [Example 3u28], the DC50 in assay [1] came out at 2.9 nM. Besides, a half-maximal effect in assay [2] (EC50) was put at 24.3 nM.
In the case of `CNc1ccn(-c2ccnc3c2cc(CN2CCC(c4c(F)cc(C(=O)N5CCC(CN6CCN(Cc7ccc8c(c7)n(C)c(=O)n8[C@H]7CCC(=O)NC7=O)CC6)CC5)cc4F)CC2)n3C)c(=O)c1` (single isomer, unassigned) [Example 3u30], the DC50 in assay [1] was found to be 2.2 nM. The molecule further gave an EC50 in assay [2] of 1.6 nM.
In the case of `CNc1ccn(-c2ccnc3c2cc(CN2CCC(c4c(F)cc(C(=O)N5CCC(CN6CCN(Cc7ccc8c(c7)n(C)c(=O)n8[C@@H]7CCC(=O)NC7=O)CC6)CC5)cc4F)CC2)n3C)c(=O)c1` (single isomer, unassigned) [Example 3u31], the DC50 in assay [1] was 2.4 nM. The molecule also gave an EC50 in assay [2] of 2 nM.
In the case of `CNc1ccn(-c2ccnc3c2cc([C@H](C)N2CC=C(c4c(C)cc(C(=O)N5CCC(CN6CCN(Cc7ccc8c(c7)n(C)c(=O)n8[C@H]7CCC(=O)NC7=O)C[C@@H]6C)CC5)cc4F)CC2)n3C)c(=O)c1` (single isomer, unassigned) [Example 3u33], the DC50 in assay [1] came out at 0.2 nM. The same molecule gave an EC50 in assay [2] of 0.3 nM.
With `CNc1cc(=O)n(-c2ccnc3c2cc([C@H](C)N2CCC(c4ccc(C(=O)N5CCC(CN6CCN(Cc7ccc8c(c7)C7(CC7)C(=O)N8[C@H]7CCC(=O)NC7=O)C[C@@H]6C)CC5)cc4)CC2)n3C)cc1F` (single isomer, unassigned) [Example 3u37], the DC50 in assay [1] turned out to be 0.5 nM. The same molecule registered an EC50 in assay [2] of 1.7 nM.
Turning to `CNc1cc(=O)n(-c2ccnc3c2cc([C@H](C)N2CCC(c4ccc(C(=O)N5CCC(CN6CCN(Cc7ccc8c(c7)C7(CC7)C(=O)N8[C@@H]7CCC(=O)NC7=O)C[C@@H]6C)CC5)cc4)CC2)n3C)cc1F` (single isomer, unassigned) [Example 3u38], the DC50 in assay [1] stood at 1.3 nM. In addition, in assay [2], the midpoint of the response, the EC50, lay at 1.5 nM.
Take `CNc1ccn(-c2ccnc3c2cc(CN2CCC(c4c(F)cc(C(=O)N5CCC(CN6CCN(Cc7cc8c(cc7F)N([C@H]7CCC(=O)NC7=O)C(=O)C87CC7)CC6)CC5)cc4F)CC2)n3C)c(=O)c1` (single isomer, unassigned) [Example 3u43]: the DC50 in assay [1] was 8.5 nM. This molecule yielded an EC50 in assay [2] of 9.1 nM.
`CNc1ccn(-c2ccnc3c2cc(CN2CCC(c4c(F)cc(C(=O)N5CCC(CN6CCN(Cc7cc8c(cc7F)N([C@@H]7CCC(=O)NC7=O)C(=O)C87CC7)CC6)CC5)cc4F)CC2)n3C)c(=O)c1` (single isomer, unassigned) [Example 3u44]: the DC50 in assay [1] amounted to 10.2 nM. Also, the EC50 in assay [2] amounted to 10.1 nM.
`CNc1ccn(-c2ccnc3c2cc(CN2CC=C(c4c(F)cc(C(=O)N5CCC(CN6CCN(Cc7ccc8c(c7)C(C)(C)C(=O)N8[C@H]7CCC(=O)NC7=O)C[C@@H]6C)CC5)cc4F)CC2)n3C)c(=O)c1` (single isomer, unassigned) [Example 3u46]: in assay [1], the DC50 is 5.8 nM. For the same molecule, the midpoint of the response in assay [2], the EC50, lay at 10.1 nM.
For `CNc1ccn(-c2ccnc3c2cc(CN2CC=C(c4c(F)cc(C(=O)N5CCC(CN6CCN(Cc7ccc8c(c7)C(C)(C)C(=O)N8[C@@H]7CCC(=O)NC7=O)C[C@@H]6C)CC5)cc4F)CC2)n3C)c(=O)c1` (single isomer, unassigned) [Example 3u47], in assay [1], the DC50 was 0.8 nM. This molecule also returned an EC50 in assay [2] of 8 nM.
As for `CNc1cc(=O)n(-c2ccnc3c2cc(CN2CCC(c4c(F)cc(C(=O)N5CCC(CN6CCN(Cc7ccc8c(c7)C(C)(C)C(=O)N8[C@H]7CCC(=O)NC7=O)C[C@@H]6C)CC5)cc4F)CC2)n3C)cc1F` (single isomer, unassigned) [Example 3u49], the DC50 in assay [1] came to 1.7 nM. This molecule displayed an EC50 in assay [2] of 12.9 nM.
For the molecule `CNc1cc(=O)n(-c2ccnc3c2cc(CN2CCC(c4c(F)cc(C(=O)N5CCC(CN6CCN(Cc7ccc8c(c7)C(C)(C)C(=O)N8[C@@H]7CCC(=O)NC7=O)C[C@@H]6C)CC5)cc4F)CC2)n3C)cc1F` (single isomer, unassigned) [Example 3u50], in assay [1], the DC50 was determined as 0.9 nM. This molecule also gave an EC50 in assay [2] of 30.2 nM.
Taken in the same sequence, the figures for `CNc1cc(=O)n(-c2ccnc3c2cc([C@H](C)N2CC=C(c4c(F)cc(C(=O)N5CCC(CN6CCN(Cc7ccc8c(c7)n(C)c(=O)n8[C@H]7CCC(=O)NC7=O)CC6)CC5)cc4F)CC2)n3C)cc1F` (single isomer, unassigned) [Example 3u52] were 4.3 nM and 1.1 nM.
With `CNc1cc(=O)n(-c2ccnc3c2cc([C@H](C)N2CC=C(c4c(F)cc(C(=O)N5CCC(CN6CCN(Cc7ccc8c(c7)n(C)c(=O)n8[C@@H]7CCC(=O)NC7=O)CC6)CC5)cc4F)CC2)n3C)cc1F` (single isomer, unassigned) [Example 3u53], the half-maximal degradation concentration (DC50) in assay [1] is 8.7 nM. For the same molecule, it took 1.1 nM to reach a half-maximal effect in assay [2] (EC50).
Taken in the same sequence, the figures for `CNc1cc(=O)n(-c2ccnc3c2cc(CN2CC=C(c4c(F)cc(C(=O)N5CCC(CN6CCN(Cc7ccc8c(c7)n(C)c(=O)n8[C@@H]7CCC(=O)NC7=O)C[C@@H]6C)CC5)cc4F)CC2)n3C)cc1F` (single isomer, unassigned) [Example 3u55] were 7.6 nM and 3.1 nM.
With `CNc1cc(=O)n(-c2ccnc3c2cc(CN2CC=C(c4c(F)cc(C(=O)N5CCC(CN6CCN(Cc7ccc8c(c7)n(C)c(=O)n8[C@H]7CCC(=O)NC7=O)C[C@@H]6C)CC5)cc4F)CC2)n3C)cc1F` (single isomer, unassigned) [Example 3u56], the DC50 in assay [1] is 8.7 nM. In assay [2], this molecule came in with an EC50 of 3.5 nM.
On to `CNc1cc(=O)n(-c2ccnc3c2cc(CN2CCC(c4c(F)cc(C(=O)N5CCC(CN6CCN(Cc7ccc8c(c7)C(C)(C)C(=O)N8[C@H]7CCC(=O)NC7=O)CC6)CC5)cc4F)CC2)n3C)cc1F` (single isomer, unassigned) [Example 3u58], for which the DC50 in assay [1] came to 7.6 nM. The same molecule displayed an EC50 in assay [2] of 12.6 nM.
